Experimental data from ChEMBL document CHEMBL4311935, “Synthesis and antitumor activity of fluorouracil - oleanolic acid/ursolic acid/glycyrrhetinic acid conjugates” (Medchemcomm, 2019).
pIC50: −log10 of the molar value.

Experiments:
A549 = test: Cytotoxicity against human A549 cells assessed as cell growth inhibition after 48 hrs by MTT assay; type: functional, cell-based; settings: A549, 48 h
MCF7 = test: Cytotoxicity against human MCF7 cells assessed as cell growth inhibition after 48 hrs by MTT assay; type: functional, cell-based; settings: MCF7, 48 h
Bel-7402 = test: Cytotoxicity against human Bel7402 cells assessed as cell growth inhibition after 48 hrs by MTT assay; type: functional, cell-based; settings: Bel-7402, 48 h
K562 = test: Cytotoxicity against human K562 cells assessed as cell growth inhibition after 48 hrs by MTT assay; type: functional, cell-based; settings: K562, 48 h
L02 = test: Cytotoxicity against human LO2 cells assessed as cell growth inhibition after 48 hrs by MTT assay; type: cell-based; settings: L02, 48 h
A549/TR = test: Cytotoxicity against human A549/T cells assessed as cell growth inhibition after 48 hrs by MTT assay; type: functional, cell-based
NCI/ADR-RES = test: Cytotoxicity against human MCF7/ADR cells assessed as cell growth inhibition after 48 hrs by MTT assay; type: functional, cell-based
Bel7402/5-FU = test: Cytotoxicity against human Bel7402/5-FU cells assessed as cell growth inhibition after 48 hrs by MTT assay; type: functional, cell-based
K562/Adr = test: Cytotoxicity against human K562/ADR cells assessed as cell growth inhibition after 48 hrs by MTT assay; type: functional, cell-based

Row | Compound | pIC50 (A549) | pIC50 (MCF7) | pIC50 (Bel-7402) | pIC50 (K562) | pIC50 (L02) | pIC50 (A549/TR) | pIC50 (NCI/ADR-RES) | pIC50 (Bel7402/5-FU) | pIC50 (K562/Adr)
1 | C[C@H]1[C@H](C)CC[C@]2(C(=O)OCCCCCCn3cc(F)c(=O)[nH]c3=O)CC[C@]3(C)C(=CC[C@@H]4[C@@]5(C)CC[C@H](O)C(C)(C)[C@@H]5CC[C@]43C)[C@H]12 | 4.76 | 4.72 | 4.49 | 4.83 | 4.65 |  |  |  | 
2 | O=c1[nH]cc(F)c(=O)[nH]1 [FLUOROURACIL] | 4.30 | 4.28 | 4.27 | 4.38 | < 3.70 | 4.07 | 4.26 | 4.42 | 4.50
3 | CC1(C)CC[C@]2(C(=O)OCCCCCCn3cc(F)c(=O)n(CCCCCCOC(=O)[C@]45CCC(C)(C)C[C@H]4C4=CC[C@@H]6[C@@]7(C)CC[C@H](O)C(C)(C)[C@@H]7CC[C@@]6(C)[C@]4(C)CC5)c3=O)CC[C@]3(C)C(=CC[C@@H]4[C@@]5(C)CC[C@H](O)C(C)(C)[C@@H]5CC[C@]43C)[C@@H]2C1 | < 3.70 | < 3.70 | < 3.70 | < 3.70 | < 3.70 |  |  |  | 
4 | CC1(C)[C@@H](O)CC[C@]2(C)[C@H]3C(=O)C=C4[C@@H]5C[C@@](C)(C(=O)O)CC[C@]5(C)CC[C@@]4(C)[C@]3(C)CC[C@@H]12 [ENOXOLONE] | < 3.70 | < 3.70 | < 3.70 | < 3.70 | < 3.70 | 4.00 | 4.13 | 4.16 | 4.06
5 | CC1(C)[C@@H](O)CC[C@]2(C)[C@H]3C(=O)C=C4[C@@H]5C[C@@](C)(C(=O)OCCCCCCn6cc(F)c(=O)n(CCCCCCOC(=O)[C@@]7(C)CC[C@]8(C)CC[C@]9(C)C(=CC(=O)[C@@H]%10[C@@]%11(C)CC[C@H](O)C(C)(C)[C@@H]%11CC[C@]%109C)[C@@H]8C7)c6=O)CC[C@]5(C)CC[C@@]4(C)[C@]3(C)CC[C@@H]12 | < 3.70 | < 3.70 | < 3.70 | < 3.70 | < 3.70 |  |  |  | 
6 | CC1(C)[C@@H](O)CC[C@]2(C)[C@H]3C(=O)C=C4[C@@H]5C[C@@](C)(C(=O)OCCCCCCCCn6cc(F)c(=O)n(CCCCCCCCOC(=O)[C@@]7(C)CC[C@]8(C)CC[C@]9(C)C(=CC(=O)[C@@H]%10[C@@]%11(C)CC[C@H](O)C(C)(C)[C@@H]%11CC[C@]%109C)[C@@H]8C7)c6=O)CC[C@]5(C)CC[C@@]4(C)[C@]3(C)CC[C@@H]12 | < 3.70 | < 3.70 | < 3.70 | < 3.70 | < 3.70 |  |  |  | 
7 | CC1(C)CC[C@]2(C(=O)O)CC[C@]3(C)C(=CC[C@@H]4[C@@]5(C)CC[C@H](O)C(C)(C)[C@@H]5CC[C@]43C)[C@@H]2C1 [OLEANOLIC_ACID] | 4.38 | < 3.70 | 4.22 | < 3.70 | < 3.70 | < 3.70 | < 3.70 | < 3.70 | < 3.70
8 | C[C@H]1[C@H](C)CC[C@]2(C(=O)OCCCCCCn3cc(F)c(=O)n(CCCCCCOC(=O)[C@@]45CC[C@]6(C)C(=CC[C@@H]7[C@@]8(C)CC[C@H](O)C(C)(C)[C@@H]8CC[C@]76C)[C@@H]4C[C@@H](C)[C@H](C)C5)c3=O)CC[C@]3(C)C(=CC[C@@H]4[C@@]5(C)CC[C@H](O)C(C)(C)[C@@H]5CC[C@]43C)[C@H]12 | < 3.70 | < 3.70 | < 3.70 | < 3.70 | < 3.70 |  |  |  | 
9 | CC1(C)[C@@H](O)CC[C@]2(C)[C@H]3C(=O)C=C4[C@@H]5C[C@@](C)(C(=O)OCCCCCCn6cc(F)c(=O)[nH]c6=O)CC[C@]5(C)CC[C@@]4(C)[C@]3(C)CC[C@@H]12 | 4.31 | 4.30 | 4.39 | 4.46 | 4.14 |  |  |  | 
10 | C[C@H]1[C@H](C)CC[C@]2(C(=O)OCCCCCCCCn3cc(F)c(=O)[nH]c3=O)CC[C@]3(C)C(=CC[C@@H]4[C@@]5(C)CC[C@H](O)C(C)(C)[C@@H]5CC[C@]43C)[C@H]12 | < 3.70 | < 3.70 | < 3.70 | < 3.70 | < 3.70 |  |  |  | 
11 | CC1(C)CC[C@]2(C(=O)OCCCCCCn3cc(F)c(=O)[nH]c3=O)CC[C@]3(C)C(=CC[C@@H]4[C@@]5(C)CC[C@H](O)C(C)(C)[C@@H]5CC[C@]43C)[C@@H]2C1 | 4.63 | 4.61 | 4.60 | 4.83 | 4.33 |  |  |  | 
12 | CC1(C)CC[C@]2(C(=O)OCCCCCCCCn3cc(F)c(=O)n(CCCCCCCCOC(=O)[C@]45CCC(C)(C)C[C@H]4C4=CC[C@@H]6[C@@]7(C)CC[C@H](O)C(C)(C)[C@@H]7CC[C@@]6(C)[C@]4(C)CC5)c3=O)CC[C@]3(C)C(=CC[C@@H]4[C@@]5(C)CC[C@H](O)C(C)(C)[C@@H]5CC[C@]43C)[C@@H]2C1 | < 3.70 | < 3.70 | < 3.70 | < 3.70 | < 3.70 |  |  |  | 
13 | C[C@H]1[C@H](C)CC[C@]2(C(=O)OCCCCCCCCn3cc(F)c(=O)n(CCCCCCCCOC(=O)[C@@]45CC[C@]6(C)C(=CC[C@@H]7[C@@]8(C)CC[C@H](O)C(C)(C)[C@@H]8CC[C@]76C)[C@@H]4C[C@@H](C)[C@H](C)C5)c3=O)CC[C@]3(C)C(=CC[C@@H]4[C@@]5(C)CC[C@H](O)C(C)(C)[C@@H]5CC[C@]43C)[C@H]12 | < 3.70 | < 3.70 | < 3.70 | < 3.70 | < 3.70 |  |  |  | 
14 | CC1(C)CC[C@]2(C(=O)OCCCCCCCCn3cc(F)c(=O)[nH]c3=O)CC[C@]3(C)C(=CC[C@@H]4[C@@]5(C)CC[C@H](O)C(C)(C)[C@@H]5CC[C@]43C)[C@@H]2C1 | 4.30 | 4.27 | 4.36 | 4.64 | < 3.70 | 4.37 | 3.78 | 4.50 | < 3.70
15 | C[C@H]1[C@H](C)CC[C@]2(C(=O)O)CC[C@]3(C)C(=CC[C@@H]4[C@@]5(C)CC[C@H](O)C(C)(C)[C@@H]5CC[C@]43C)[C@H]12 [URSOLIC ACID] | 4.11 | 4.15 | 4.19 | 4.39 | 4.23 |  |  |  | 4.42
